Data set [1] is described as follows: Pharmacokinetic study, plasma level 2 hours after oral dosing in rats. The class given is in vivo. How it is done: Pharmacokinetic studies were conducted to determine absorption and distribution profiles of the disclosed compounds which were orally administered to rats.
Compounds were formulated in a 1% DMA/99% Vitamin E TPGS vehicle. Prepared compounds were dosed via oral gavage (PO). Following the appropriate pretreatment time of 2 hours, rats were anesthetized with isoflurane gas. Blood was collected into tubes containing EDTA via retro-orbital eye bleed. Whole blood was spun in a micro-centrifuge at approximately 13,000 rpm for 5 minutes at room temperature. Separated plasma was subsequently aliquoted into eppendorf tubes. Samples were stored at −80° C. until prepped for analysis.
Plasma samples were thawed and the required amount of plasma for standards, blanks and dilutions were made. The dilutions were prepared before plating. Preparation of crash solution included cold acetonitrile+0.1% formic acid and 25 ng/mL of a FAAH inhibitor used as internal standard. solvent standards of the FAAH inhibitor being studied were preparation at 10, 30, 100, 300, 1000, 3000, 10000, 30000, 100000, and 300000 ng/mL in DMSO. Then a plasma standard curve was generated from the solvent standards (final concentrations of standards in plasma were: 0.1, 0.3, 1, 3, 10, 30, 100, 300, 1000, 3000 ng/mL). 50 μL of each plasma sample/dilution, standard, or blank was transferred into 96-well plates. To each well, 200 μL of cold crash solution was added. The plate was covered and gently vortexed. The plate was centrifuged at 3500 rpm, 4° C. for 10 min. 200 μL of each supernatant was transferred into new plates. The plates were dried under nitrogen in a TurboVap at 55° C. The sample in each well was re-suspended with 100 μL of 30% acetonitrile, covered and vortexed gently. The well solutions were analyzed by the LC/MS/MS conditions and specifications below.
HPLC column was a Clipeus C8, 2.1×30 mm, 5 μm, with Basic 8 guard column using 20 μL injections. Mobile phase used was mobile phase A: 0.1% Formic Acid in water and mobile phase B: 0.1% Formic Acid in 85:10:5 ACN:IPA:H2O. The flow rate for the run was 0.5 mL/min and the gradient for the 4 minute total run time was: 0.0 minutes

For data set [2], the target named is T1, FAAH (Homo sapiens, UniProt O00519).
T1 construct: Reactions were initiated by adding 12.5 μg of brain microsome; tissue ABS, Inc; host or cells: human brain cerebral cortex, membrane/microsome fraction pooled from 3 donors
T1 sequence (O00519 1-579): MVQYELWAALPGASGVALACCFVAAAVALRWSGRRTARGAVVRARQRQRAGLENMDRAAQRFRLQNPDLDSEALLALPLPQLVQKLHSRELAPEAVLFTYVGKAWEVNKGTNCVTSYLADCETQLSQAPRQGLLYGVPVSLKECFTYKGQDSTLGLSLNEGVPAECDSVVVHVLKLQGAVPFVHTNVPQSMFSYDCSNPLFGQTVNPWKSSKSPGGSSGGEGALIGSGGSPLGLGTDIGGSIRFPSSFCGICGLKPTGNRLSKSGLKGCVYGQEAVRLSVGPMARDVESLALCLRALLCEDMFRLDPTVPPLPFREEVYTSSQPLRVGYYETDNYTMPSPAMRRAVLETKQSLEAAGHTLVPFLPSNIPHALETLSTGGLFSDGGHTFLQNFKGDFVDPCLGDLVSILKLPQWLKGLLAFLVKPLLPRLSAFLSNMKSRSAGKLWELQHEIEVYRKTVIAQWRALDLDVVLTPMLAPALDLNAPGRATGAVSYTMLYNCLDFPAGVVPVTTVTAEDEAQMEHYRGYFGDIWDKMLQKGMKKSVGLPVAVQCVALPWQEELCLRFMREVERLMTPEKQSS
The data set is described as follows: FAAH inhibition, human brain membrane homogenate assay. The class given is biochemical. The conditions noted are these: human brain homogenate; average activity; read-out: Human brain Extract FAAH IC50.

The target in data set [3] is T2, hERG channel (Homo sapiens, UniProt Q12809).
T2 construct: expressed in transfected cells; host or cells: CHO (hERG-CHO), under Geneticin selection
T2 sequence (Q12809 whole entry): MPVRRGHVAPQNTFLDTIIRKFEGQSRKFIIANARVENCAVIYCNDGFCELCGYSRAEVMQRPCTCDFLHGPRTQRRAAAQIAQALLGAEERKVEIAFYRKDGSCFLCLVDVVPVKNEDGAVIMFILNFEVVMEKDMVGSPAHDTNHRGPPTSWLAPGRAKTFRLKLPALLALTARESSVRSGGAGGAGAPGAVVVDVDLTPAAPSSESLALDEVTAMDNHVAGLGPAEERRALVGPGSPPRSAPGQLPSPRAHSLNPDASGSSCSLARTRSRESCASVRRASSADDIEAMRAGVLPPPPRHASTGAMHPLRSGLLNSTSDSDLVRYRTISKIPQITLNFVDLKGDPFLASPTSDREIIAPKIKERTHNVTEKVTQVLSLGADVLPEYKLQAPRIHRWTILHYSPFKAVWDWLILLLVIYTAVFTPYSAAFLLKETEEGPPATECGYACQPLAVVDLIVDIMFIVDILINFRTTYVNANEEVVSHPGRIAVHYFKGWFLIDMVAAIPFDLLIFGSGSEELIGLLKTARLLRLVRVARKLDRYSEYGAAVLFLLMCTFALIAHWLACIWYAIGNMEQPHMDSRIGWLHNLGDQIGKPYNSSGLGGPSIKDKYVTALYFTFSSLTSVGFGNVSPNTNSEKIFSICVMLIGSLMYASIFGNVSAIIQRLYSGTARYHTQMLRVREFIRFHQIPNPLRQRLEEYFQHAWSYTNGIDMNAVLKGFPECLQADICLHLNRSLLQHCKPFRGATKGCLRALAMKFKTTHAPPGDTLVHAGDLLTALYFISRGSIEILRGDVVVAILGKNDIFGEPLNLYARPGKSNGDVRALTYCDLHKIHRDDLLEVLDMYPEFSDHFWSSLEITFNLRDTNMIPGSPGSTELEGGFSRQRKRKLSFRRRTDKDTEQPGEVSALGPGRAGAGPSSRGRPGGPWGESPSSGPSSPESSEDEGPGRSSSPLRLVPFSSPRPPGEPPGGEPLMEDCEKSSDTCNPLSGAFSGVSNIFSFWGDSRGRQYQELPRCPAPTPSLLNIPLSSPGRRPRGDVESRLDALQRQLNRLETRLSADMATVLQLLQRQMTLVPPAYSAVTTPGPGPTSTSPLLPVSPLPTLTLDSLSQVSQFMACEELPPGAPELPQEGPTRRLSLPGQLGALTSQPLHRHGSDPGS
The data set is described as follows: hERG channel inhibition, automated patch clamp (IonWorks HT, hERG-CHO). The format is cell-based. Conditions: CHO cells expressing hERG, 600 s incubation; for inhibition at 600 s, 1 µM: 1 μM compound, read-out: hERG Channel Inhibition % (at 1 μM), vehicle-subtracted values; for inhibition at 600 s, 10 µM: 10 μM compound, read-out: hERG Channel Inhibition % (at 10 μM), vehicle-subtracted values. The method, then: Human ether-a-gogo-related (hERG) ion channel encodes the inward rectifying voltage gated potassium channel in the heart and has a major role during the repolarization of the cardiac action potential. It is well established that blockade of this ion channel can lead to potentially lethal arrhythmias. hERG pre-clinical safety data is often used by regulatory agencies in elucidate the toxicity profile of certain compositions. The disclosed compounds of Table 1 were tested for their ability to inhibit hERG ion channels.
Media components include F12 Nutrient Mixture (Ham) with GlutaMAX™ (Invitrogen, Cat#31765), Fetal Bovine Serum, Certified (Invitrogen, Cat#16000-044—not heat activated), and Geneticin® Selective Antibiotic (Invitrogen, Cat#10131-027).
One vial of frozen cells, at 1.62×10^6 cells are thawed into a T150 flask (BD Falcon 355001) with 40 mL of pre-warmed complete media. Cells are cultured at 37° C., 5% CO2 for four hours prior to gently changing media. 99% of cells appear attached at this time point.
The flask is media changed at 24 hours post-thaw, the cells are imaged, media changed, and returned to the incubator. At this point, the cells appear healthy and about 25% confluent in the flask. Cells are typically passed 24-48 hours after thaw according to the following intervals and densities below. Cells are incubated at 30° C. for 48 hours prior to assay.
Using an automated patch clamp apparatus (IonWorks^HT), a three pulse protocol was applied by stepping from a holding potential of −80 mV to […] for 2 s, to activate hERG channels. The membrane voltage was then stepped back to −50 mV for 2 s to evoke a tail current prior to returning to the holding potential for 1 s. This sequence was repeated a further two times. This voltage protocol was applied prior to drug (Pre compound) and after 600 s in the presence of drug (Post compound).
The amplitude of the hERG tail current was calculated by measuring the difference between the maximum current on stepping to −50 mV of the third pulse (i.e. peak of the outward hERG tail current) and the current measured immediately prior to activation of any hERG current. This parameter was assessed before (pre tail current amplitude) and after 600 s incubation (post tail current amplitude) in drug. In order to assess the amount of block produced by test compounds, the data was first filtered using the IonWorks™ software to exclude any cells where the seal resistance was less than 50 MOhm. The remaining data was then exported to an excel compatible data file and only currents with tail currents greater than 250 pA were analyzed. The post/pre tail current amplitude ratio for the third pulse was calculated for each drug and control, and presented as percent inhibition.
For orientation: hERG is a cardiac potassium channel; its block is linked to QT prolongation.

Molecules are shown by their SMILES.

As usually defined, the IC50 is the concentration at which inhibition is half-maximal. Broadly, the inhibition is how much of the control response was suppressed.

`COc1cc(NC(=O)C(=O)c2c(C)n(Cc3ccc(Cl)cc3)c3ccc(C#N)cc23)ccn1` [Compound 15, 2-(1-(4-chlorobenzyl)-5-cyano-2-methyl-1H-indol-3-yl)-N-(2-methoxypyridin-4-yl)-2-oxoacetamide]: the “2 hr plasma level-ng/mL (rat, 10 mg/kg PO, 2 hr)” value (from here on “2 hr plasma level-ng/mL”) in data set [1] is reported as “D (D = greater than 1000 nM)”. Further, the IC50 in data set [2] is under 100 nM. For the same molecule, in data set [3], the inhibition at 600 s, 1 µM is under 25% and the inhibition at 600 s, 10 µM was in the range of 50 to 75%.
Consider `COc1ccc(Cn2c(C)c(C(=O)C(=O)Nc3ccnc(OC)c3)c3cc(OC)c(Cl)cc32)nc1` [Compound 98, 2-(6-chloro-5-methoxy-1-((5-methoxypyridin-2-yl)methyl)-2-methyl-1H-indol-3-yl)-N-(2-methoxypyridin-4-yl)-2-oxoacetamide], for which, in data set [1], the “2 hr plasma level-ng/mL” value is “C (C = between 100 nM and 1000 nM)”. Also, in data set [2], the IC50 is under 100 nM. For the same molecule, in data set [3], the inhibition at 600 s, 1 µM was under 25% and the inhibition at 600 s, 10 µM was under 25%.
In the case of `COc1cc(NC(=O)C(=O)c2c(C)n(Cc3ccc(Cl)cn3)c3ncc(C)cc23)ccn1` [Compound 75, (1-((5-chloropyridin-2-yl)methyl)-2,5-dimethyl-1H-pyrrolo[2,3-b]pyridin-3-yl)-N-(2-methoxypyridin-4-yl)-2-oxoacetamide], the “2 hr plasma level-ng/mL” value in data set [1] was “D (D = greater than 1000 nM)”. Also, the half-maximal inhibitory concentration (IC50) in data set [2] was under 100 nM.
Regarding `COc1cc(NC(=O)C(=O)c2c(C)n(Cc3ccc(Cl)cc3)c3ccc(C(F)(F)F)cc23)ccn1` [Compound 21, 2-(1-(4-chlorobenzyl)-2-methyl-5-(trifluoromethyl)-1H-indol-3-yl)-N-(2-methoxypyridin-4-yl)-2-oxoacetamide], in data set [1], the “2 hr plasma level-ng/mL” value is “C (C = between 100 nM and 1000 nM)”. Also, in data set [2], the IC50 was under 100 nM. In data set [3], the inhibition at 600 s, 1 µM was under 25% and the inhibition at 600 s, 10 µM fell in the range of 25 to 50%.
As for `COc1cc(NC(=O)C(=O)c2c(C)n(Cc3ncc(Cl)cc3F)c3ccc(C)cc23)ccn1` [Compound 33, 2-(1-((5-chloro-3-fluoropyridin-2-yl)methyl)-2,5-dimethyl-1H-indol-3-yl)-N-(2-methoxypyridin-4-yl)-2-oxoacetamide], the “2 hr plasma level-ng/mL” value in data set [1] is “C (C = between 100 nM and 1000 nM)”. The 50% inhibitory concentration (IC50) in data set [2] was under 100 nM. Also, in data set [3], the inhibition at 600 s, 1 µM was under 25% and the inhibition at 600 s, 10 µM is under 25%.
Consider `COc1cnc2c(c1)c(C(=O)C(=O)Nc1ccnc(OC)c1)c(C)n2Cc1ncc(Cl)cc1F` [Compound 34, 2-(1-((5-chloro-3-fluoropyridin-2-yl)methyl)-5-methoxy-2-methyl-1H-pyrrolo[2,3-b]pyridin-3-yl)-N-(2-methoxypyridin-4-yl)-2-oxoacetamide], for which, in data set [1], the “2 hr plasma level-ng/mL” value is “D (D = greater than 1000 nM)”. The concentration for half-maximal inhibition (IC50) in data set [2] was under 100 nM. In addition, in data set [3], the inhibition at 600 s, 1 µM was under 25% and the inhibition at 600 s, 10 µM was under 25%.
In the case of `COc1cc(NC(=O)C(=O)c2c(C)n(Cc3ccc(Cl)cc3)c3ccc(CO)cc23)ccn1` [Compound 8, 2-(1-(4-chlorobenzyl)-5-(hydroxymethyl)-2-methyl-1H-indol-3-yl)-N-(2-methoxypyridin-4-yl)-2-oxoacetamide], in data set [1], the “2 hr plasma level-ng/mL” value was “C (C = between 100 nM and 1000 nM)”. In addition, the half-inhibitory concentration (IC50) in data set [2] was under 100 nM.
In the case of `COc1cc(NC(=O)C(=O)c2c(C)n(Cc3ccc(Cl)cn3)c3ccc(N(C)C)cc23)ccn1` [Compound 66, 2-(1-((5-chloropyridin-2-yl)methyl)-5-(dimethylamino)-2-methyl-1H-indol-3-yl)-N-(2-methoxypyridin-4-yl)-2-oxoacetamide], the “2 hr plasma level-ng/mL” value in data set [1] is listed as “D (D = greater than 1000 nM)”. In data set [2], the half-inhibitory concentration (IC50) is under 100 nM.
As to `COc1cc(NC(=O)C(=O)c2c(C)n(Cc3ccc(Cl)cc3)c3ncc(C)cc23)ccn1` [Compound 76, 2-(1-(4-chlorobenzyl)-2,5-dimethyl-1H-pyrrolo[2,3-b]pyridin-3-yl)-N-(2-methoxypyridin-4-yl)-2-oxoacetamide], the “2 hr plasma level-ng/mL” value in data set [1] was “C (C = between 100 nM and 1000 nM)”. Moreover, the concentration for half-maximal inhibition (IC50) in data set [2] is under 100 nM.
With `COc1cc(NC(=O)C(=O)c2c(C)n(Cc3ccc(Cl)cc3)c3ccc(COC(C)=O)cc23)ccn1` [Compound 10, (1-(4-chlorobenzyl)-3-(2-(2-methoxypyridin-4-ylamino)-2-oxoacetyl)-2-methyl-1H-indol-5-yl)methyl acetate], the “2 hr plasma level-ng/mL” value in data set [1] is “C (C = between 100 nM and 1000 nM)”. In addition, in data set [2], the IC50 was under 100 nM.
Turning to `COc1cc(NC(=O)C(=O)c2c(C)n(Cc3ccc(Cl)cc3)c3ccc(C(=O)N(C)C)cc23)ccn1` [Compound 6, 1-(4-chlorobenzyl)-3-(2-(2-methoxypyridin-4-ylamino)-2-oxoacetyl)-N,N,2-trimethyl-1H-indole-5-carboxamide], in data set [2], the concentration for half-maximal inhibition (IC50) fell in the range of 100 to 1000 nM. Besides, in data set [3], the inhibition at 600 s, 1 µM was under 25% and the inhibition at 600 s, 10 µM was under 25%.
In the case of `COc1cc(NC(=O)C(=O)c2c(C)n(Cc3ccc(Cl)cc3)c3cc(C)c(OC)cc23)ccn1` [Compound 74, 2-(1-(4-chlorobenzyl)-5-methoxy-2,6-dimethyl-1H-indol-3-yl)-N-(2-methoxypyridin-4-yl)-2-oxoacetamide], in data set [1], the “2 hr plasma level-ng/mL” value is “C (C = between 100 nM and 1000 nM)”. Further, the IC50 in data set [2] is under 100 nM.
For `COc1cnc2c(c1)c(C(=O)C(=O)Nc1ccnc(OC)c1)c(C)n2Cc1ncc(Cl)cc1Cl` [Compound 29, 2-(1-((3,5-dichloropyridin-2-yl)methyl)-5-methoxy-2-methyl-1H-pyrrolo[2,3-b]pyridin-3-yl)-N-(2-methoxypyridin-4-yl)-2-oxoacetamide], in data set [1], the “2 hr plasma level-ng/mL” value is given as “D (D = greater than 1000 nM)”. Moreover, the 50% inhibitory concentration (IC50) in data set [2] was under 100 nM.

These data come from US20150175599A1, “FAAH Inhibitors” (Ironwood Pharmaceuticals, Inc., priority 2010, published 2015).
